Results published in US8455475B2 (Gruenenthal GmbH, priority 2009, dated 2013).

Assays:
[1] = molecular target: T1, rat B1R (bradykinin receptor 1) (Rattus norvegicus, UniProt P97583); assay: FLIPR Ca2+ assay (Fluo-4) on CHO K1 cells stably transfected with the B1R gene of the rat (rB1R cells): % inhibition at 10 μM / IC50, agonist Des-Arg9-bradykinin; type: cell-based; conditions: CHO-K1, rat B1R
T1 construct: expressed in transfected cells; host or cells: CHO K1 cells
T1 sequence (P97583 1-337): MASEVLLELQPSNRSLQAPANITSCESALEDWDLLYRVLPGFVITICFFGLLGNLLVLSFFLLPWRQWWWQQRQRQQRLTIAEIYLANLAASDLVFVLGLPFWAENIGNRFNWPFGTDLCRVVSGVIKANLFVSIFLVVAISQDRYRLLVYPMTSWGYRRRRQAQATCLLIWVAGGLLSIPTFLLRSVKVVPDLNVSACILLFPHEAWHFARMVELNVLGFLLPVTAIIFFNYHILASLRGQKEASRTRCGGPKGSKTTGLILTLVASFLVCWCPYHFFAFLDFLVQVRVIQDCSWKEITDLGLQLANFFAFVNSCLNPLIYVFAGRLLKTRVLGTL
Outline: (§1)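 Stable CHO K1 lines, Fluo-4 dye, probenecid-containing buffer. Cpd 10 μM or dose range, 10–20 min, then EC80 agonist (h: Lys-Des-Arg9-BK; r: Des-Arg9-BK). Readout peak FC; % inhibition vs max; IC50 from n=2–3, N≥2.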

[2] = molecular target: T2, human B1R (bradykinin receptor 1) (Homo sapiens, UniProt P46663); assay: FLIPR Ca2+ assay (Fluo-4) on CHO K1 cells stably transfected with the human B1R gene (hB1R cells): % inhibition at 10 μM / IC50, agonist Lys-Des-Arg9-bradykinin; type: cell-based; conditions: CHO-K1, human B1R
T2 construct: expressed in transfected cells; host or cells: CHO K1 cells
T2 sequence (P46663 1-353): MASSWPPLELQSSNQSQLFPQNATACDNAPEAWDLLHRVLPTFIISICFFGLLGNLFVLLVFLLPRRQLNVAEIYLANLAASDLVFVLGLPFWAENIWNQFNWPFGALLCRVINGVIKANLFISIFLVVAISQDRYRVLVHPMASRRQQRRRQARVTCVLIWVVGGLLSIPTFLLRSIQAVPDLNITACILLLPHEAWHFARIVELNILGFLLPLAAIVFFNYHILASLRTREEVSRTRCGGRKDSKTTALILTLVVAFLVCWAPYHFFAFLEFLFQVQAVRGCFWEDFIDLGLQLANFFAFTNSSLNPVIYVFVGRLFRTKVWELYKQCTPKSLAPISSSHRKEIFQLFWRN
Outline: as §1

Row | Structure (SMILES) | inhibition at 10 µM [1] [%] | inhibition at 10 µM [2] [%]
1 | Cc1ccc2n1C(=O)N([C@@H]1CCc3ccc(C(=O)N4CCC5(CCN(c6ccncc6)CC5)C4)cc31)C2 [Example H-134, 5-Methyl-2-[(1R)-6-(8-pyridin-4-yl-3,8-diazaspiro[4.5]decane-3-carbonyl)-2,3-dihydro-1H-inden-1-yl]-1,2-dihydro-pyrrolo[2.1-e]imidazol-3-one] | 103 | 99
2 | CN([C@@H]1CCc2ccc(C(=O)N3CCC4(CCN(c5ccncc5)CC4)C3)cc21)S(=O)(=O)c1ccccc1Cl [Example H-136, 2-Chloro-N-methyl-N-[(1R)-6-(8-pyridin-4-yl-3,8-diazaspiro[4.5]decane-3-carbonyl)-2,3-dihydro-1H-inden-1-yl]-benzenesulfonic acid amide] | 101 | 99
3 | N#Cc1ccc(N2CCC3(CCN(C(=O)c4ccc5c(c4)[C@H](NC(=O)c4ccccc4Cl)CC5)C3)CC2)cc1 [Example H-140, 2-Chloro-N-[(1R)-6-[8-(4-cyano-phenyl)-3,8-diazaspiro[4.5]decane-3-carbonyl]-2,3-dihydro-1H-inden-1-yl]-benzamide] | 100 | 70
4 | O=C(N[C@@H]1CCc2ccc(C(=O)N3CCC4(CCN(c5ccncc5)CC4)C3)cc21)c1cc(F)ccc1Cl [Example H-141, 2-Chloro-5-fluoro-N-[(1R)-6-(8-pyridin-4-yl-3,8-diazaspiro[4.5]decane-3-carbonyl)-2,3-dihydro-1H-inden-1-yl]-benzamide] | 101 | 99
5 | O=C(c1ccc2c(c1)[C@H](NS(=O)(=O)c1cc(Cl)ccc1Cl)CC2)N1CCC2(CCN(c3ccncc3)CC2)C1 [Example H-142, 2,5-Dichloro-N-[(1R)-6-(8-pyridin-4-yl-3,8-diazaspiro[4.5]decane-3-carbonyl)-2,3-dihydro-1H-inden-1-yl]-benzenesulfonic acid amide] | 103 | 98
6 | CC(C)CC(=O)N[C@@H]1CCc2ccc(C(=O)N3CCC4(CCN(c5ccncc5)CC4)C3)cc21 [Example H-143, 3-Methyl-N-[(1R)-6-(8-pyridin-4-yl-3,8-diazaspiro[4.5]decane-3-carbonyl)-2,3-dihydro-1H-inden-1-yl]-butyramide] | 105 | 100
7 | COc1ccc(S(=O)(=O)N[C@@H]2CCc3ccc(C(=O)N4CCC5(CCN(c6ccncc6)CC5)C4)cc32)c(C(F)(F)F)c1 [Example H-144, 4-Methoxy-N-[(1R)-6-(8-pyridin-4-yl-3,8-diazaspiro[4.5]decane-3-carbonyl)-2,3-dihydro-1H-inden-1-yl]-2-(trifluoromethyl)-benzenesulfonic acid amide] | 104 | 99
8 | CC(C)(C(=O)N[C@@H]1CCc2ccc(C(=O)N3CCC4(CCN(c5ccncc5)CC4)C3)cc21)c1ccccc1Cl [Example H-146, 2-(2-Chlorophenyl)-2-methyl-N-[(1R)-6-(8-pyridin-4-yl-3,8-diazaspiro[4.5]decane-3-carbonyl)-2,3-dihydro-1H-inden-1-yl]-propionamide] | 102 | 100
9 | O=C(c1ccc2c(c1)[C@H](NC(=O)C1(c3ccccc3Cl)CC1)CC2)N1CCC2(CCN(c3ccncc3)CC2)C1 [Example H-148, 1-(2-Chlorophenyl)-N-[(1R)-6-(8-pyridin-4-yl-3,8-diazaspiro[4.5]decane-3-carbonyl)-2,3-dihydro-1H-inden-1-yl]-cyclopropane-1-carboxylic acid amide] | 101 | 100
10 | O=C(c1ccc2c(c1)[C@H](NS(=O)(=O)c1c(Cl)cccc1C(F)(F)F)CC2)N1CCC2(CCN(c3ccncc3)CC2)C1 [Example H-149, 2-Chloro-N-[(1R)-6-(8-pyridin-4-yl-3,8-diazaspiro[4.5]decane-3-carbonyl)-2,3-dihydro-1H-inden-1-yl]-6-(trifluoromethyl)-benzenesulfonic acid amide] | 103 | 100
11 | O=C(c1ccc2c(c1)[C@H](NS(=O)(=O)Cc1ccccc1Cl)CC2)N1CCC2(CCN(c3ccncc3)CC2)C1 [Example H-150, 1-(2-Chlorophenyl)-N-[(1R)-6-(8-pyridin-4-yl-3,8-diazaspiro[4.5]decane-3-carbonyl)-2,3-dihydro-1H-inden-1-yl]-methanesulfonic acid amide] | 100 | 97
12 | O=C(Cc1ccccc1Cl)N[C@@H]1CCc2ccc(C(=O)N3CCC4(CCN(c5ccncc5)CC4)C3)cc21 [Example H-151, 2-(2-Chlorophenyl)-N-[(1R)-6-(8-pyridin-4-yl-3,8-diazaspiro[4.5]decane-3-carbonyl)-2,3-dihydro-1H-inden-1-yl]-acetamide] | 103 | 99
13 | O=C(Cc1ccccc1F)N[C@@H]1CCc2ccc(C(=O)N3CCC4(CCN(c5ccncc5)CC4)C3)cc21 [Example H-152, 2-(2-Fluorophenyl)-N-[(1R)-6-(8-pyridin-4-yl-3,8-diazaspiro[4.5]decane-3-carbonyl)-2,3-dihydro-1H-inden-1-yl]-acetamide] | 101 | 99
14 | O=C(N[C@@H]1CCc2ccc(C(=O)N3CCC4(CCN(c5ccncc5)CC4)C3)cc21)c1cccc(F)c1Cl [Example H-153, 2-Chloro-3-fluoro-N-[(1R)-6-(8-pyridin-4-yl-3,8-diazaspiro[4.5]decane-3-carbonyl)-2,3-dihydro-1H-inden-1-yl]-benzamide] | 105 | 99
15 | Cc1ccccc1CC(=O)N[C@@H]1CCc2ccc(C(=O)N3CCC4(CCN(c5ccncc5)CC4)C3)cc21 [Example H-154, 2-(o-Tolyl)-N-[(1R)-6-(8-pyridin-4-yl-3,8-diazaspiro[4.5]decane-3-carbonyl)-2,3-dihydro-1H-inden-1-yl]-acetamide] | 105 | 99
16 | O=C(N[C@H]1CCc2cc(C(=O)N3CCC4(CC3)CCN(c3ccncc3)CC4)ccc21)c1ccccc1Cl [Example H-156, 2-Chloro-N-[(1S)-5-(9-pyridin-4-yl-3,9-diazaspiro[5.5]undecane-3-carbonyl)-2,3-dihydro-1H-inden-1-yl]-benzamide] | 75 | 24
17 | O=C(c1ccc2c(c1)CC[C@@H]2N1Cc2cccc(Cl)c2C1=O)N1CCC2(CCN(c3ccncc3)CC2)C1 [Example H-157] | 98 | 100

Continued, values first:

Row | inhibition at 10 µM [1] [%] | inhibition at 10 µM [2] [%] | Structure (SMILES)
18 | 101 | 80 | O=C(N[C@@H]1CCc2ccc(C(=O)N3CCC4(CCC(c5cccnc5)CC4)C3)cc21)c1ccccc1Cl (stereo partly drawn) [Example H-135, 2-Chloro-N-[(1R)-6-(8-pyridin-3-yl-3-azaspiro[4.5]decane-3-carbonyl)-2,3-dihydro-1H-inden-1-yl]-benzamide]
19 | 103 | 99 | O=C(c1ccc2c(c1)[C@H](N(CC(F)(F)F)C(=O)c1ccccc1Cl)CC2)N1CCC2(CCN(c3ccncc3)CC2)C1 [Example H-137, 2-Chloro-N-[(1R)-6-(8-pyridin-4-yl-3,8-diazaspiro[4.5]decane-3-carbonyl)-2,3-dihydro-1H-inden-1-yl]-N-(2,2,2-trifluoro-ethyl)-benzamide]
20 | 102 | 100 | O=C(NC1CCc2ccc(C(=O)N3CCCC4(CC3)CCN(c3ccncc3)CC4)cc21)c1ccccc1Cl (stereo not drawn) [Example H-138, 2-Chloro-N-[6-(3-pyridin-4-yl-3,10-diazaspiro[5.6]dodecane-10-carbonyl)-2,3-dihydro-1H-inden-1-yl]-benzamide]
21 | 98 | 31 | COc1ccc(N2CCC3(CCN(C(=O)c4ccc5c(c4)[C@H](NC(=O)c4ccccc4Cl)CC5)C3)CC2)cc1 [Example H-139, 2-Chloro-N-[(1R)-6-[8-(4-methoxyphenyl)-3,8-diazaspiro[4.5]decane-3-carbonyl]-2,3-dihydro-1H-inden-1-yl]-benzamide]
22 | 101 | 100 | CC(C(=O)N[C@@H]1CCc2ccc(C(=O)N3CCC4(CCN(c5ccncc5)CC4)C3)cc21)c1ccccc1Cl (stereo partly drawn) [Example H-145, 2-(2-Chlorophenyl)-N-[(1R)-6-(8-pyridin-4-yl-3,8-diazaspiro[4.5]decane-3-carbonyl)-2,3-dihydro-H-inden-1-yl]-propionamide]
23 | 104 | 100 | COc1ccc(S(=O)(=O)N[C@@H]2CCc3ccc(C(=O)N4CCC5(CCN(c6ccncc6)CC5)C4)cc32)c(C)c1 [Example H-147, 4-Methoxy-2-methyl-N-[(1R)-6-(8-pyridin-4-yl-3,8-diazaspiro[4.5]decane-3-carbonyl)-2,3-dihydro-1H-inden-1-yl]-benzenesulfonic acid amide]
24 | 100 | 87 | O=C(N[C@H]1CCc2cc(C(=O)N3CCC4(CCN(c5ccncc5)CC4)C3)ccc21)c1ccccc1Cl [Example H-155]
